Data: PubChem BioAssay (NCI)
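All cell lines were grown in 96-well plates and treated with compound for 48 hours. TGI is the concentration that stops growth completely.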

Columns and labels:
Experiment in all cases: DTP human tumour cell line panel, 48 h
[1] = test system: MDA-MB-435
[2] = test system: HOP-92 NSCLC
[3] = test system: HL-60(TB) leukemia
[4] = test system: NCI-H460 lung
[5] = test system: TK-10 renal
[6] = test system: MDA-N
[7] = test system: HCT-116 colon
[8] = test system: OVCAR-5 ovarian
[9] = test system: UO-31 renal
[10] = test system: M14 melanoma
[11] = test system: NCI-H23 lung
[12] = test system: SNB-19 CNS
[13] = test system: K-562 leukemia
[14] = test system: DU-145 prostate
[15] = test system: SK-MEL-5 melanoma
[16] = test system: A549 NSCLC
[17] = test system: CAKI-1 renal
[18] = test system: SW-620 colon
[19] = test system: LOX IMVI melanoma
[20] = test system: HT29 colon

Measured: TGI

NCCCN(CCCN)CCN(CCN(CCCN)CCCN)CCN(CCCN)CCCN
> 100 µM: all assays above
